Measured values published in patent publication US10213375B2, “Cosmetic or dermatological compositions combining cosmetiques retinaldehyde and glycylglycine oleamide and the cosmetic or dermatological uses thereof” (PIERRE FABRE DERMO-COSMETIQUE, priority 2013, dated 2019).
Where a SMILES comes first, the peptide text is derived from it.

Legend:
epidermal retinoids = conditions: hairless mice, topical 0.05% for 7 days, then UVB 1 J/cm^2, cited from earlier work; for Prevention of photo-induced depletion of epidermal retinylic esters / retinoids: assayed 24 h after radiation
keratinocytes A431 = experiment: Modulation of retinylic esters induced by retinoids in keratinocytes (HPLC); format: cell-based; conditions: for Retinol / Retinylic esters: incubation 24 to 72 h, averaged values; for Total: retinol plus retinylic esters
Protocol: The study was carried out on keratinocytes A431 in a culture. Indeed, in these cells, no endogenous retinoid was measured. A retinoid has to be applied beforehand in order to measure cell retinoids. The retinoids were measured by HPLC. The incubation in the presence of various agents or combination of agents dissolved in 1% of ethanol in the culture medium, was carried out for 24 to 72 h. These are averaged values expressed in pmol/mg of protein.

[1] = test system: CD44 and hyaluronate in follicular and interfollicular epidermis; conditions: topical application, mice; cited from earlier work
glucocerebrosidase = molecular target: T1, glucocerebrosidase (Homo sapiens, UniProt P04062); conditions: compared with reference 4-methylumbelliferyl glucopyranoside; cited from earlier work
T1 sequence (P04062 40-536): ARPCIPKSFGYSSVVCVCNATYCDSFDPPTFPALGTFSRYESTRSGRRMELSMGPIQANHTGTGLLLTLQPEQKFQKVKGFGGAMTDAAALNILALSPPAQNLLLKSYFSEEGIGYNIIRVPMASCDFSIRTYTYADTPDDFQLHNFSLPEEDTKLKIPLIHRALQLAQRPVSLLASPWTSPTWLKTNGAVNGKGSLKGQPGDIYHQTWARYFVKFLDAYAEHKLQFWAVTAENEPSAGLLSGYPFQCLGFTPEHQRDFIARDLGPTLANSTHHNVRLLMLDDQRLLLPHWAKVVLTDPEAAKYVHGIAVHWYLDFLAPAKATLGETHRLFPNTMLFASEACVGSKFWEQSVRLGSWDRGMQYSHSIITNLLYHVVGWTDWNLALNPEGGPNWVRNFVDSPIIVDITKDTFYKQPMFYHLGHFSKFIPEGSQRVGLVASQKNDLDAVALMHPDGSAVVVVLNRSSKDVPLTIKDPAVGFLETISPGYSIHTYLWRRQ

Row | Compound | Retinol (keratinocytes A431; agent 15 μM in 1% ethanol) | Retinylic esters (keratinocytes A431; agent 15 μM in 1% ethanol) | Total (keratinocytes A431; agent 15 μM) | Induction / modulation of retinylic esters and cell retinoids in keratinocytes (in words) (keratinocytes A431) | other results
1 | CC1=C(/C=C/C(C)=C/C=C/C(C)=C/CO)C(C)(C)CCC1 [retinol, reference compound] |  |  |  |  | Prevention of photo-induced depletion of epidermal retinylic esters / retinoids (epidermal retinoids): prevent photo-induced depletion of epidermal retinylic esters
2 | NCC(=O)NCC(=O)O [GG, glycylglycine] (H-Gly-Gly-OH) | <10 pmol/mg of protein | <10 pmol/mg of protein | <10 pmol/mg of protein |  | 
3 | glycylglycine oleamide [OGG] | <10 pmol/mg of protein | <10 pmol/mg of protein | <10 pmol/mg of protein | significantly increased | 
4 | CCCCCCCC/C=C\CCCCCCCC(=O)O [OA, oleic acid] | <10 pmol/mg of protein | <10 pmol/mg of protein | <10 pmol/mg of protein |  | 
5 | CC1=C(/C=C/C(C)=C/C=C/C(C)=C/C=O)C(C)(C)CCC1 [RAL, retinaldehyde] |  |  |  | induces a series of retinylic esters | Epidermal hyperplasia [1]: inducing epidermal hyperplasia; Expression of CD44 and of hyaluronate versus retinoic acid and retinol [1]: more strongly increased; Retinol (keratinocytes A431; agent 2 μM in 1% ethanol): 865 pmol/mg of protein; Retinylic esters (keratinocytes A431; agent 2 μM in 1% ethanol): 280 pmol/mg of protein; Total (keratinocytes A431; agent 2 μM): 1145 pmol/mg of protein; Prevention of photo-induced depletion of epidermal retinylic esters / retinoids (epidermal retinoids): prevent photo-induced depletion of epidermal retinylic esters; Profile in the study of photo-induced depletion of retinoids (epidermal retinoids): best profile
6 | CCCCCCCCCCCCCCCC(=O)OC/C=C(C)/C=C/C=C(C)/C=C/C1=C(C)CCCC1(C)C [ROL-Pal, retinyl palmitate] | 389 pmol/mg of protein | 178 pmol/mg of protein | 567 pmol/mg of protein | less cell retinoids than retinaldehyde | 
7 | Cc1cc(O[C@@H]2O[C@H](CO)[C@@H](O)[C@H](O)[C@H]2O)cc2c1O[C@](C)(CCC[C@H](C)CCC[C@H](C)CCCC(C)C)CC2 [delta-tocopherol-glucopyranoside] |  |  |  |  | Release of delta-tocopherol on enzymatic hydrolysis (glucocerebrosidase): slowly releases delta-tocopherol
